From paper PMC8774682, “Inhibitory Mechanism of Baicalein on Acetylcholinesterase: Inhibitory Interaction, Conformational Change, and Computational Simulation” (Foods, 2022)
Where two headings read alike, the source gives them in different places.

Columns and labels:
[1] = target: T1, AChE (Electrophorus electricus, UniProt O42275); experiment: Far-UV CD spectra, secondary structure of AChE; details: c(AChE) = 0.75 µM
T1 construct: purchased Sigma-Aldrich Co. (St. Louis, MO, USA)
Protocol: Far-UV CD spectra were measured using a spectrometer (MOS 450 CD; Bio-Logic, Claix, France) with a 1.0 mm path length quartz cuvette. All the spectra were measured in the 200–240 nm range at 25 °C, and the associated scan speed was 60 nm min^−1. The AChE in the PBS was completely blended with baicalein at varying concentrations and then equilibrated for three min before CD measurements. The spectra were amended by subtracting the spectrum of the buffer with that of baicalein at the same concentration as the sample solution. Three scans were conducted, and the ellipticity in millidegrees indicated the results. The contents of the discrepant secondary structures (α-helix, β-sheet, β-turn, and random coil) from AChE were measured based on CD spectroscopic data following the online SELCON3 program (http://dichroweb.cryst.bbk.ac.uk/html/home.shtml. Accessed on: 18 August 2021).

[2] = system: PC12 cells; experiment: Cytotoxicity in PC12 cells (MTT assay); assay type: cell-based; details: 1–80 µM, 24 h
Protocol: PC12 cells were purchased from the NanJing KeyGen Biotech Co. Ltd. (Nanjing, China). These cells were cultivated in high-glucose DMEM supplemented with 10% FBS, 100 U/mL of penicillin and 100 µg/mL of streptomycin at 37 °C under a humidified 5% CO2 atmosphere. Baicalein was dissolved in DMSO to prepare a 5 mM stock solution and diluted with serum-free media before use. PC12 cells were seeded into a 96-well plate at the density of 2 × 10 ^4 cells/well (100 μL) and cultured for 24 h. Next, the medium was changed, and the cells were treated with baicalein at 0, 1, 10, 20, 40, and 80 µM. Each concentration had six replicate wells, and the culture was continued for 24 h. To determine the effect of baicalein on cell viability, 20 µL of MTT (5 mg/mL) was added to each well. After 4 h, the resulting formazan crystals were dissolved by adding 150 μL of DMSO for 10–15 min. The absorption (O.D.) of each hole at 570 nm wavelength was measured using an enzyme-labelled instrument (Varioskan LUX; Thermo Fisher Scientific, Waltham, MA, USA). Cell viability was expressed as the percentage of the control.

[3] = target: T1, AChE; experiment: Kinetic analysis of the inhibitory type (Lineweaver–Burk plots, v vs. AChE plots); assay type: biochemical
Excerpt: The Lineweaver–Burk plots and Michaelis–Menten enzyme kinetics were applied to analyse the inhibitory type. For competitive type inhibition, the dynamic double reciprocal equation was used as follows:(1) 1/v=Km/vmax(1+(I) /Ki)1/(S)+1/vmax (2) Kmapp=Km(I)/Ki+Km where (I) and (S) denote the inhibitor and substrate concentrations, respectively; ν represents the enzyme reaction rate irrespective of the presence of baicalein; νmax is the maximum catalytic reaction rate; Ki, Km, and Kmapp stand for the inhibition constant, Michaelis−Menten constant, and apparent Michaelis constant, respectively.

[4] = target: T1, AChE; experiment: Time-course test of AChE inactivation kinetics; assay type: biochemical
Protocol: The kinetic process and rate constants for enzyme inactivation were determined through the time-course test. Baicalein with concentrations of 2, 4, 8, and 16 µM was used for analysing the time-course. Enzyme activity at each concentration was measured every 3 min for 0–30 min, every 6 min for 30–60 min, and then at 70 and 80 min.

[5] = target: T1, AChE; experiment: AChE activity assay (Ellman's method, modified); assay type: biochemical
Protocol: AChE (137 U/mg, Electrophorus electricus) was provided by Sigma-Aldrich Co. (St. Louis, MO, USA), and their stock solutions with 10 U/mL concentrations were prepared with 0.1 M phosphate-buffered saline (pH 7.6) and stored at −20 °C. Baicalein (purity ≥ 98%) was obtained from the National Institute for the Control of Pharmaceutical and Biological Products (Beijing, China) and dissolved in ethanol to prepare the stock solution (5 mM). 5,5-Dithiobis-(2-nitrobenzoic acid) (DTNB), acetylthiocholine iodide (ATCI), galathamine hydrobromide, and 3-(4, 5-dimethylthiazol-2-yl)-2,5-diphenyltetrazolium bromide (MTT) were provided by Aladdin Chemistry Co., Ltd. (Shanghai, China). Foetal bovine serum (FBS) was purchased from Gibco (Carlsbad, CA, USA). Dulbecco’s modified Eagle’s medium (DMEM), trypsin, and other cell culture reagents were purchased from Solarbio (Beijing, China). All remaining reagents were of analytical grade.
AChE activity was evaluated per Ellman’s method, albeit with a slight modification. Quartz cuvettes (3 mL) were utilised for measuring the assay mixture activity. Solutions containing varying amounts of baicalein, phosphate-buffered saline (0.1 M, pH 7.6), and 50 µL of AChE (2 U/mL, 3.4 × 10^−8 M) were cultivated in 30 min at 25 °C. After the pre-incubation period, 50 μL of 5, 5-dithiobis-(2-nitrobenzoic) acid (DNTB, 5 mM) was added. The reaction was then initiated with 50 μL of acetylthiocholine iodide (ATCI, 15 mM). The absorbance at 412 nm was monitored every 5 s with the TU−1901 dual-beam UV–Vis Spectrophotometer (Persee; Beijing, China). The samples were measured thrice, and the average value was considered. Enzyme activity without baicalein was identified to be 100%. […] Galantamine hydrobromide served as the positive control.

[6] = target: T1, AChE; experiment: Fluorescence quenching and synchronous fluorescence of AChE; assay type: binding
Protocol: A spectrofluorometer (model F-7000; Hitachi, Tokyo, Japan) containing a thermostat bath was used to measure the fluorescence spectra. The AChE solution (2.5 mL; 0.17 µM) was introduced into a 1.0 cm path length quartz cell, followed by titration through the successive addition of 2.0 mM of diluted baicalein solution (to obtain the concentration range of 0–16 µM). The well-mixed solutions were set aside for three min for equilibration purposes. The fluorescence spectra were measured in the 290–450 nm range, and the relevant excitation wavelength set was 280 nm at 25 °C, 31°C, and 37 °C. Excitation and emission bandwidths were 2.5 nm. In addition, synchronous fluorescence spectra for AChE with baicalein were conducted by fixing the interval of excitation and emission wavelength constants at 15 nm and 60 nm. Fluorescence data were amended according to our previous reports to erase the re-absorption possibility and the inner filter effects of UV absorption.
The binding constant (Ka) for the AChE–bacalein complex and the binding site number (n) were measured using Equation (3):(3) logF0−F/F=nlogKa−nlog1/(Qt)−(F0−F)(Pt)/F0
In general, four noncovalent interaction forces exist between small molecules and macromolecules, namely hydrogen bonds, van der Waals forces, electrostatic forces, and hydrophobic interactions. To identify the binding forces between bacalein and AChE, the thermodynamic parameters were measured following the Van’t Hoff equation:(4) logKa=−ΔH°/2.303RT+ΔS°/2.303R (5) ΔG°=ΔH°−TΔS° where Ka denotes the binding constant, and R represents the gas constant (8.314 J mol^−1 K^−1). The temperatures (T) used were 25 °C, 31 °C, and 37 °C.

[7] = Van't Hoff equation, 25, 31, 37 °C

T1 sequence (O42275 24-633): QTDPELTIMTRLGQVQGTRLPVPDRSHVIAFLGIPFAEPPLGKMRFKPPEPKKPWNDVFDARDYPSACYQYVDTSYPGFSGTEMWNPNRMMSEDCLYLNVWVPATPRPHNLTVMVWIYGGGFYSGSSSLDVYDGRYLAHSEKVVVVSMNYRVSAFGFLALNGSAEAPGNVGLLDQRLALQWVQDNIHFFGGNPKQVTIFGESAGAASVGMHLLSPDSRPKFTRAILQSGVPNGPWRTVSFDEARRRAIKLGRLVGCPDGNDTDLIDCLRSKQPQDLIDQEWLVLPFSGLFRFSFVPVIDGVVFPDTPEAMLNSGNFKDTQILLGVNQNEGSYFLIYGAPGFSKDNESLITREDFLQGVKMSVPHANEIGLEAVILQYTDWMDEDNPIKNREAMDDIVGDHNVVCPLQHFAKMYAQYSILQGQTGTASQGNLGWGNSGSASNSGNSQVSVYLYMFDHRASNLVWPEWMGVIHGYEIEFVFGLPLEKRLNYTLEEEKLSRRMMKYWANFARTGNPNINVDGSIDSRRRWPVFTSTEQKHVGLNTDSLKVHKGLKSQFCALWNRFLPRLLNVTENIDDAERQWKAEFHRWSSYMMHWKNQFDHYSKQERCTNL

## O=c1cc(-c2ccccc2)oc2cc(O)c(O)c(O)c12 [baicalein, 5,6,7-trihydroxyflavone]
[1]; molar ratio baicalein:AChE 2:1
  Random coil content of AChE: 25.36 ± 0.29%
  α-Helix content of AChE: 38.82 ± 0.08%
  β-Sheet content of AChE: 14.57 ± 0.13%
  β-Turn content of AChE: 21.42 ± 0.57%
[1]; molar ratio baicalein:AChE 6:1
  Random coil content of AChE: 21.71 ± 0.47%
  α-Helix content of AChE: 42.53 ± 0.35%
  β-Sheet content of AChE: 7.73 ± 0.03%
  β-Turn content of AChE: 28.15 ± 0.89%
[2]
  cytotoxicity (cell viability, MTT): nontoxic
[3]; Lineweaver–Burk, baicalein 0, 4, 8, 10 µM, c(AChE) = 0.57 nM, read-out: Ki (inhibition constant)
  Ki: 4.32 ± 0.26 µM
[3]; double reciprocal plots intersect on the Y axis
  inhibition type: competitive
[3]; plots of v vs. AChE concentration, baicalein 0-16 µM
  inhibition reversibility: reversible
[4]; baicalein 2 µM
  Inactivation rate constant k: 1.48 ± 0.03 ×10^−4 s^−1
[4]; baicalein 4 µM
  Inactivation rate constant k: 2.42 ± 0.05 ×10^−4 s^−1
[4]; baicalein 8 µM
  Inactivation rate constant k: 4.01 ± 0.02 ×10^−4 s^−1
[4]; baicalein 16 µM
  Inactivation rate constant k: 5.18 ± 0.08 ×10^−4 s^−1
[5]
  IC50: 6.42 ± 0.07 µM
[5]; read-out: final inhibition rate of AChE activity
  inhibition at 26.7 µM: 90%
[6]; 25-37 °C
  bimolecular quenching constant Kq, magnitude order: ~10^13 L mol^−1 s^−1
[6]; 25-37 °C, read-out: binding constant, order of magnitude
  Kd: ~100 µM
[6]; 25 °C
  binding site number n: 0.88 ± 0.01
  quenching constant KSV: 6.45 ± 0.02 ×10^4 L mol^−1
  ∆G°: -5.428 ± 0.014 kcal/mol
[6]; 25 °C, read-out: binding constant Ka (converted)
  Kd: 15 µM
[6]; 31 °C
  binding site number n: 0.93 ± 0.03
  quenching constant KSV: 5.78± 0.03 ×10^4 L mol^−1
  ∆G°: -5.457 ± 0.0072 kcal/mol
[6]; 31 °C, read-out: binding constant Ka (converted)
  Kd: 17.1 µM
[6]; 37 °C
  binding site number n: 1.13 ± 0.02
  quenching constant KSV: 5.22± 0.07 ×10^4 L mol^−1
  ∆G°: -5.483 ± 0.019 kcal/mol
[6]; 37 °C, read-out: binding constant Ka (converted)
  Kd: 19.6 µM
[6]; [7]
  ∆H°: -4.065 ± 0.0048 kcal/mol
  ∆S°: 19.15 ± 0.09 J mol^−1 K^−1
[6]; Δλ = 15 nm, baicalein up to 16.0 μM, c(AChE) = 0.17 µM
  synchronous fluorescence quenching ratio RSFQ, Tyr residues: 58.48%
[6]; Δλ = 60 nm, baicalein up to 16.0 μM, c(AChE) = 0.17 µM
  synchronous fluorescence quenching ratio RSFQ, Trp residues: 63.83%

## O=C(O)[C@H]1O[C@@H](Oc2cc3oc(-c4ccccc4)cc(=O)c3c(O)c2O)[C@H](O)[C@@H](O)[C@@H]1O [baicalin, reference compound]
[5]
  IC50: 204 ± 16.5 µM
